From the supplement of paper PMC10307832

Assays:
Assay in all cases: relative viability (nuclei count vs DMSO), 5 days (fraction); higher = more cells survive
[1] = compound: CS(=O)(=O)CCNCc1ccc(-c2ccc3ncnc(Nc4ccc(OCc5cccc(F)c5)c(Cl)c4)c3c2)o1 [Lapatinib] + Nc1nc2[nH]cc(CCc3ccc(C(=O)N[C@@H](CCC(=O)O)C(=O)O)cc3)c2c(=O)[nH]1 [Pemetrexed] (partner 0.2 µM)
Procedure, shortened: (§1)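 Values are medians from duplicate plates. Each reflects relative viability, defined as the nuclei count of treated wells over that of vehicle wells. Lung cancer cell lines in 1536-well plates were pin-tool dosed one day after seeding with one drug alone or with a fixed anchor-drug dose plus five library-drug doses (not always all listed) in √10 steps, then fixed, stained and imaged at 4× after 5 days.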

[2] = compound: CC1=NC=CC(=C1)C2=CC=C(C=C2)CC(=O)NC3=CC=C(C=C3)C4=CN=CC=C4 [Wnt-C59] + C[C@@H](Oc1cc(-c2cnn(C3CCNCC3)c2)cnc1N)c1c(Cl)ccc(F)c1Cl [Crizotinib] (partner 1 µM)
Procedure, shortened: as §1

[3] = compound: CC1=NC=CC(=C1)C2=CC=C(C=C2)CC(=O)NC3=CC=C(C=C3)C4=CN=CC=C4 [Wnt-C59] + CS(=O)(=O)CCNCc1ccc(-c2ccc3ncnc(Nc4ccc(OCc5cccc(F)c5)c(Cl)c4)c3c2)o1 [Lapatinib] (partner 2 µM)
Procedure, shortened: as §1

UMC-11
relative viability ([1]; first compound 0.02 µM): 0.803 | relative viability ([1]; first compound 0.06325 µM): 0.7 | relative viability ([1]; first compound 0.2 µM): 0.781 | relative viability ([1]; first compound 0.6325 µM): 0.795 | relative viability ([1]; first compound 2 µM): 0.753 | relative viability ([2]; first compound 0.001 µM): 0.659 | relative viability ([2]; first compound 0.01 µM): 0.567 | relative viability ([2]; first compound 0.03162 µM): 0.588 | relative viability ([2]; first compound 0.1 µM): 0.518 | relative viability ([3]; first compound 0.001 µM): 0.911 | relative viability ([3]; first compound 0.01 µM): 0.851 | relative viability ([3]; first compound 0.03162 µM): 1.03 | relative viability ([3]; first compound 0.1 µM): 0.749
